The target of series [1] is T1, NK-2 receptor (Rattus norvegicus, UniProt P16610).
T1 construct: from tissue; host or cells: rat duodenum membrane preparation
T1 sequence (P16610 1-390): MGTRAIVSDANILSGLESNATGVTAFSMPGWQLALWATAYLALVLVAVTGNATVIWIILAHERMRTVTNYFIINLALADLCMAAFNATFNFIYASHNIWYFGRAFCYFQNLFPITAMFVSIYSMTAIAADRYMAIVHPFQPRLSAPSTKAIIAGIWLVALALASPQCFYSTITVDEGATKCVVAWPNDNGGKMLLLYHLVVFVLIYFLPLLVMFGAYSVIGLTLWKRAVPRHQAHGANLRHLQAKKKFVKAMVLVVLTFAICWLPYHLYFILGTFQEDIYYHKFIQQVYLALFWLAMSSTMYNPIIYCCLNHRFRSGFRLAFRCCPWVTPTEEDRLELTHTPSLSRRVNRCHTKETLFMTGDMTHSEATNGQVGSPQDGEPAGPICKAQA
The series is described as follows: NK-2 receptor binding test (125I-neurokinin A, rat duodenum membrane preparation). As to conditions: rat duodenum membranes, 125I-neurokinin A 1×10^−9 M, room temperature, 90 minutes; read-out: IC50 of the drug against radioactive neurokinin A binding. As for the experimental part:
NK-2 Receptor Binding Test
The duodenum taken out from a Fischer-strain male rat was homogenized in a 50 mM tris-hydrochloride buffer solution containing ethylenediaminetetracetic acid (1 mM), and 48,000 g of the obtained homogenate was subjected to centrifugal sedimentation at 4° C. for 20 minutes. The produced pellets were washed thrice with 10 times as much volume of a 50 mM trishydrochloride butter solution containing KCl (300 mM) and ethylenediaminetetracetic acid (10 mM), and the obtained membrane preparation was suspended in 10 times as much volume of a 50 mM tris-hydrochloride buffer solution (pH 7.4) and kept at −80° C. till it was offered to use. The above membrane preparation (20 mg/ml) was incubated with a radioactive legand 125 I-neurokinin A (1×10^−9 M) in a 50 mM tris-hydrochloride buffer solution (pH 7.4) containing bovine serum albumin (10 mg/ml), bacitracin (40 μg/ml), leupepsin (4 μg/ml), chymostatin (50 μg/ml), antipain (1×10^−4 M) and MnCl2 (1 mM) in the presence of a drug or its solvent at room temperature for 90 minutes. The reaction solution was suction-filtered by a GE/B filter pretreated with polyethylene-imine (0.1%), and was washed with 3 ml of a 50 mM tris-hydrochloride buffer solution (pH 7.4) containing MnCl2 (1 mM), and the radioactivity in the filter was measured by a gamma counter. With the radioactivity in the presence of Nle10 eurokinin A (4-10) (3×10^−6 M) being taken as non-specific binding, the specific binding inhibition rate by the drug was given as control in the case of a solvent, and the 50% inhibition concentration (IC50) of the drug was determined from the linear regression.

Series [2] has as its target T2, NK-2 receptor (Cavia porcellus, UniProt Q64077).
T2 construct: Specimens were prepared by joining 5 slices from said trachea; from tissue; host or cells: isolated guinea pig trachea (A2); anesthetized guinea pig airway in vivo (A5)
T2 sequence (Q64077 1-402): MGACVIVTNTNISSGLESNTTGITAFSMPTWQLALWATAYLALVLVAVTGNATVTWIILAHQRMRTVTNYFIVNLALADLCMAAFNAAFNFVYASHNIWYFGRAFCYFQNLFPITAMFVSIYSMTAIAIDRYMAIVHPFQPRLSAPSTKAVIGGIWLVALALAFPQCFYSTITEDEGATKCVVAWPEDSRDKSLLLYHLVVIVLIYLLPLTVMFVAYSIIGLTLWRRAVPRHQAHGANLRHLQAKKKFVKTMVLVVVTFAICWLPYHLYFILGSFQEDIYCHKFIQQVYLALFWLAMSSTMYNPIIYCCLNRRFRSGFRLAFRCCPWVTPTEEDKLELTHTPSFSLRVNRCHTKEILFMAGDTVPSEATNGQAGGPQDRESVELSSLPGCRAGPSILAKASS
The series is described as follows: Antagonistic action against NK-2 receptor: neurokinin A-induced contraction of isolated guinea pig trachea. Format: cell-based. As to conditions: drug concentration 5 × 10^−9 M, neurokinin A 1×10^−9 M, 110-minute incubation, read-out: Inhibition rate of neurokinin A-induced contraction. How it is done:
Antagonistic Action Against NK-2 Receptor
A Hartley-strain male guinea pig was caused to die by head contusion and blood depletion, and its trachea was extracted. Specimens were prepared by joining 5 slices from said trachea, and they were suspended with a tension of 0.5 gram-weight in a 15-ml Magunus tank containing a 37° C. Krebs-Henseleit liquid through which a mixed gas of 95% O2 and 5% CO2 had been passed. A Krebs-Henseleit liquid containing indomethacin (5×10^−6 M) was used to obviate the participation of endogenous prostaglandin. After confirming the maximum contraction of each specimen by methacholine, a drug or its solvent was added and, after 110-minute incubation, neurokinin A (1×10^−9 M) was acted thereto. Phosphoramidon (1×10^−5 M) was added for inhibiting decomposition of neurokinin A 30 minutes before the addition of neurokinin A and (±) CP-96345 (3×10^−7 M) was added for eliminating the participation of NK-1 receptor 20 minutes before the addition of neurokinin A. The contraction by neurokinin A was first determined as a ratio to the maximum contraction of each specimen, and then the inhibition rate by the drug was determined with the amount of contraction of the solvent-added specimen as control.

The target in a further series is T3, NK-1 receptor (Cavia porcellus, UniProt P30547).
T3 construct: its ileum was extracted; An approximately 3 cm long specimen was prepared therefrom; from tissue; host or cells: isolated guinea pig ileum
The series is described as follows: Antagonistic action against NK-1 receptor: Methyl Substance P-induced contraction of isolated guinea pig ileum. The format is cell-based. As to conditions: Methyl Substance P 1×10^−9 M, 35-minute incubation, read-out: IC50 of the drug against contraction by Methyl Substance P. How it is done: Antagonistic Action Against NK-1 Receptor
A Hartley strain male guinea pig was caused to die by head contusion and blood depletion, and its ileum was extracted. An approximately 3 cm long specimen was prepared therefrom, and it was suspended with a tension of 0.5 gram-weight in a 15 ml Mogunus tank containing a 37° C. Krebs-Henseleit liquid through which a mixed gas of 95% O2 and 5% CO2 had been passed. A Krebs-Henseleit liquid containing atropin (1×10^−6 M) and indomethacin (5×10^−6 M) was used to get rid of the participation of endogenous acetylcholine and prostaglandin. Methyl Substance P (1×10^−9 M), which is a specific stimulant of NK-1 receptor, was acted repeatedly at intervals of 40 minutes. After contraction by Methyl Substance P was stabilized, the drug was added in various concentrations and, after 35-minute incubation, Methyl Substance P was again acted. The contraction inhibition rate by the drug was determined with the contraction just before the addition of the drug as control, and the 50% inhibition concentration (IC50) of the drug was calculated from the linear regression.

For the next series, the target named is T4, NK-3 receptor (Cavia porcellus, UniProt P30098).
T4 construct: its ileum was extracted; An approximately 3 cm long specimen was prepared therefrom; from tissue; host or cells: isolated guinea pig ileum
T4 sequence (P30098 1-440): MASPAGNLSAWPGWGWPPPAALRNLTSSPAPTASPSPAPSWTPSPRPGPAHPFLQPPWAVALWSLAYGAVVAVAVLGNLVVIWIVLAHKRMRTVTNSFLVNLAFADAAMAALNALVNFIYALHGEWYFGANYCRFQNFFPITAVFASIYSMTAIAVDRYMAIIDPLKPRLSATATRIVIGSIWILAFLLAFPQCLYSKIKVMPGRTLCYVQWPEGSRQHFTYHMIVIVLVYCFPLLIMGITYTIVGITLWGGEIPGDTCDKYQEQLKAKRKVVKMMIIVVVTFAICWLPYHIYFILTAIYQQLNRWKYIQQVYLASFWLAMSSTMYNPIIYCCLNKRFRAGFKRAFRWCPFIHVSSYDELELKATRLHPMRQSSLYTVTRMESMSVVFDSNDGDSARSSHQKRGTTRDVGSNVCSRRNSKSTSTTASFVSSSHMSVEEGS
The series can be described thus: Antagonistic action against NK-3 receptor: senktide-induced contraction of isolated guinea pig ileum. The format is cell-based. As to conditions: senktide 1×10^−9 M, 35-minute incubation, read-out: IC50 of the drug against contraction by senktide. As for the experimental part: Antagonistic Action Against NK-3 Receptor
A Hartley-strain male guinea pig was caused to die by head contusion and blood depletion, and its ileum was extracted. An approximately 3 cm long specimen was prepared therefrom, and it was suspended with a tension of 0.5 gram-weight in a 15 ml Magunus tank containing a 37° C. Kregs-Henseleit liquid through which a mixed gas of 95% O2 and 5% CO2 had been passed. A Krebs-Henseleit liquid containing atropin (1×10^−6 M) and indomethacin (5×10^−6 M) was used to obviate the participation of endogenous acetylcholine and prostaglandin. Senktide (1×10^−9 M), which is a specific stimulant of NK-3 receptor, was acted repeatedly at intervals of 50 minutes. After contraction by senktide was stabilized, the drug was added in various concentrations and, after 35-minute incubation, senktide was again acted. The contraction inhibition rate by the drug was determined with the amount of contraction just before the addition of the drug as control, and the 50% inhibition concentration (IC50) of the drug was determined from the linear regression.

In series [3] the target is T2, NK-2 receptor. The series is described as follows: Inhibitory action against stricture of airway caused by NK-2 receptor stimulation and antigen inhalation. As to conditions: guinea pig. Format: in vivo. How it is done: Inhibitory Action Against Stricture of Airway
The non-treated Hartley strain male guinea pigs and the Hartley strain male guinea pigs which had been actively sensitized by subcutaneous administration of 300 mg/kg of ovalbumin 14 to 21 days ago were used. A tube was inserted into the trachea of each guinea pig anesthetized with pentobarbital, and positive pressure breathing was conducted at a rate of 60 times of breathing per minute (10 ml/kg) by an artificial breathing system. Lateral pressure of the tube in the trachea was measured as an index of stricture of airway. Spontaneous respiration was inhibited by the administration of succinylcholine. To the non-treated guinea pigs, 2 μmol of Nle10 neurokinin A (4-10)—a specific stimulant to NK-2 receptor—was intravenously injected repeatedly at intervals of 10 minutes. After the induced airway restriction reaction was stabilized, the drug was administered intravenously or perorally. 3 minutes after intravenous administration or 50 minutes after peroral or intraduodenal administration, Nle10 neurokinin A (4-10) was again intravenously injected. The inhibition rate by the drug was determined with the degree of airway restriction before drug administration as control.
15 minutes after intravenous administration of 4.6 μmol/kg of phosphoramidon to each actively sensitized guinea pig, it was forced to inhale, for 2 minutes, an aerosol of an antigen ovalbumin solution (2 mg/ml) generated by a supersonic nebulizer to induce stricture of the airway. The drug or its solvent was administered perorally 50 minutes before the antigen inhalation. 8 minutes after antigen inhalation of the solvent-administered group, the inhibition rate of the drug-administered group was determined with the degree of airway stricture of the solvent-administered group as control.

A further series concerns Mouse. The series is described as follows: Toxic action in mouse, intravenous administration. Format: in vivo. An excerpt: Toxicity of the novel naphthyridine derivatives of the present invention was examined.

T3 sequence (P30547 whole entry): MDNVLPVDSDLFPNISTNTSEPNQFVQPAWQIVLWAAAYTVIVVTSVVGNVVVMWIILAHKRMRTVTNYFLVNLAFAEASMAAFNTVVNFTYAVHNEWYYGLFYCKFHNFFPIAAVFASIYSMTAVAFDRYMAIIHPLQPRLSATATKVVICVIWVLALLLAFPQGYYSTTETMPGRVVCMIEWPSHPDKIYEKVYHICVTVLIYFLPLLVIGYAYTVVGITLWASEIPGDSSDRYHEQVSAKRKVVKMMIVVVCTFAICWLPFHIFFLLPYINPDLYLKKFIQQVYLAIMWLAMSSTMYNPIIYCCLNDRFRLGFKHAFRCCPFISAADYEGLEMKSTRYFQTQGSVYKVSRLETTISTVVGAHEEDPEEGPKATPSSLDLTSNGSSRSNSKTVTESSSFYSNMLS

The IC50 is the concentration that inhibits the measured activity by half. A word on the inhibition: it is how much of the control response was suppressed. Turning to `CN(CC(CCN1CCc2nc3c(cc2C1)CCCC3)c1ccc(Cl)c(Cl)c1)C(=O)c1ccccc1` (stereo not drawn) [(2)-b], the figures for the IC50 at NK-2 receptor [1], at NK-1 receptor and on NK-3 receptor were 56 nM, 470 nM and 180 nM, respectively. For the same compound, on NK-2 receptor [2], the inhibition at 0.005 µM stood at 89.1%. The “Inhibition rate (%) NK-2 receptor stimulation and antigen inhalation” value on NK-2 receptor [3] (1 μmol/kg, Intravenous) was determined as 94.2%; at NK-2 receptor [3] (8 μmol/kg, Peroral), 67.2%; at NK-2 receptor [3] (10 μmol/kg, Peroral) it was 54.1%. The “Toxicity by intravenous administration of the drug” value in the series on Mouse (22 μmol/kg intravenous) and in the series with Mouse (65 μmol/kg intravenous) was “None” in each case.
On to `CN(CC(CCN1CCc2nc3ccccc3c(-c3ccccc3)c2C1)c1ccc(Cl)c(Cl)c1)C(=O)c1ccccc1` (stereo not drawn) [(3)-b], for which, at NK-2 receptor [1], the IC50 stood at 70 nM. On NK-2 receptor [3] (0.5 μmol/kg, Intravenous), the “Inhibition rate (%) NK-2 receptor stimulation and antigen inhalation” value came to 70.0%.
For `CC(=O)Nc1c2c(nc3ccccc13)CCN(CCC(CN(C)C(=O)c1ccccc1)c1ccc(Cl)c(Cl)c1)C2` (stereo not drawn) [(6)-b], on NK-2 receptor [1], the IC50 was determined as 18 nM. For the same compound, the “Inhibition rate (%) NK-2 receptor stimulation and antigen inhalation” value on NK-2 receptor [3] (0.5 μmol/kg, Intravenous) is 100.0%; at NK-2 receptor [3] (8 μmol/kg, Peroral), 81.5%. In the series on Mouse (65 μmol/kg intravenous), the “Toxicity by intravenous administration of the drug” value is listed as “None”.
